In patent US8642040B2, “Methods for promoting myelination, neuronal survival and oligodendrocyte differentiation via administration of Sp35 or TrkA antagonists” (Biogen Idec MA Inc., priority 2006, dated 2014):

Experiments:
Format in all cases: cell-based, rat
[1] = test system: DRG-oligodendrocyte co-cultures; assay: DRG-oligodendrocyte co-culture myelination, Western blot for MBP and MAG; conditions: FIG. 7
Text: CNS myelination in the presence of NGF and either an Sp35 antagonist (Sp35-DN) or a TrkA antagonist (TrkA-DN) was examined. 3 week old DRG and oligodendrocyte cocultures (prepared as described in Example 3) were infected with lentiviruses, at an MOI of 2 per cell, expressing either full-length or dominant negative Sp35, full-length or dominant negative Nogo Receptor, full-length or dominant negative Taj, full-length or dominant negative p75, and full-length or dominant negative TrkA. Lentiviruses were prepared as described in Example 3 and as follows. Rat p75 full length (FL-p75, amino acid residues 1-425), p75 dominant negative (DN-p75, amino acid residues 1-275), human TrkA full length (FL-TrkA, amino acid residues 1-796), TrkA dominant negative (DN-TrkA, amino acid residues 1-441), human Taj full length (FL-Taj, amino acid residues 1-417), Taj dominant negative (DN-Taj, amino acid residues 1-192), rat Nogo receptor full length (FL-NgR, amino acid residues 1-473), Nogo receptor dominant negative (DN-NgR, amino acid residues 28-310). DNA sequence was inserted into the NotI and BamHI sites of HRST-IRESeGFP lentivirus vector. Plasmids were transfected into 293 cells to produce lentivirus as described in Rubinson et al. Nat. Genetics 33:401-406 (2003).
Co-culture lysates were examined at 3 weeks and analyzed by Western blot as described previously. The blots were probed with polyclonal antibodies to MAG and to MBP. The myelin proteins MAG and MBP were used as markers for myelination.
The TrkA compound antagonist K525a was also tested in DRG-oligodendrocyte cocultures for its ability to promote myelination.
The myelin proteins MAG and MBP were used to determine whether TrkA was upstream of Sp35 in inhibiting myelination in DRG-oligodendrocyte co-cultures. Oligodendrocyte-DRG co-cultures were prepared as described in Example 3. […]
Fresh media was changed every three days. […] Lysates were subjected to 4-20% SDS-PAGE, and analyzed by Western blotting with an antibody to MBP, MAG and Sp35. […]

[2] = test system: Oligodendrocyte/DRG co-cultures; assay: Oligodendrocyte/DRG co-culture myelination, MBP immunofluorescence
Method: Enriched populations of oligodendrocytes were grown from Female Long Evans post-natal day 2 (P2) rats. Briefly, the forebrain was dissected out and placed in Hank's buffered salt solution (HBSS) (Invitrogen, Grand Island, N.Y.). The tissue was cut into 1 mm fragments and incubated at 37° C. for 15 min in 0.01% trypsin and 10 μg/ml DNase. Dissociated cells were plated on poly-L-lysine-coated T75 tissue culture flasks and grown at 37° C. for 10 days in DMEM medium with 20% fetal calf serum (Invitrogen). Oligodendrocyte precursors (A2B5+) were collected by shaking the flask overnight at 200 rpm at 37° C., resulting in a 95% pure population. Cultures were maintained in high glucose DMEM medium containing FGF/PDGF (Peprotech) (10 ng/ml) for 1 week.
DRG cultures were prepared as follows. Embryonic dorsal root ganglia (DRG) neurons were grown in vitro as previously described in Mi et al., Nat. Neurosci. 8:745-51 (2005) and Kleitman et al. “Tissue culture methods for the study of myelination.” Culturing Nerve Cells. Banker and Goslin, eds. Cambridge Mass.: MIT Press, 337-377 (1991). Briefly, dorsal root ganglia, dissected from embryonic day 15 (E15) Long Evans rats, were plated on poly-D-lysine (100 μg/ml)-coated cover slips for 2 weeks and grown in Neurobasal medium supplemented with B27 (Invitrogen) in the presence or absence of 100 ng/ml nerve growth factor (BD Biosciences). To remove proliferating glial cells, the cultures were pulsed twice with fluorodeoxyuridine (20 μM) from days 2-6 and from days 8-10.
Oligodendrocyte-DRG co-cultures were prepared as follows. A2B5+ oligodendrocyte progenitor cells and DRG neuron drop cultures were prepared as above. One day after oligodendrocyte progenitors were added to DRG neurons, co-cultures were infected with lentivirus expressing GFP (control), dominant-negative Sp35 or full length Sp35 at 2 MOI per cell. DNA sequences used for lentiviral construction were, mouse Sp35 full length (FL-Sp35, encoding amino acid residues 34-614), Sp35 dominant negative (DN-Sp35, encoding amino acid residues 34-581). DNA sequences were inserted into the NotI and BamHI sites of HRST-IRESeGFP lentivirus vector. Plasmids were transfected into 293FT cells to produce lentivirus as described in Rubinson et al. Nat. Genetics 33:401-406 (2003).
Oligodendrocyte/DRG co-cultures were prepared as described in Example 3. The co-cultures were treated with increasing concentrations of Sp35-Fc or control-Fc for 3 weeks. Monoclonal antibodies against MBP were used to determine MBP protein concentration and for immunofluorescence experiments (Sternberger Monoclonals). […]

Sp35 [3] = assay: RT-PCR for Sp35 in purified DRGs with or without NGF; conditions: 100 ng/ml NGF for 24 hours; FIG. 9A
Method: RT-PCR for TrkA, Sp35 and GAPDH was performed on purified OPCs, SCs and DRGs in the presence or absence of NGF or BDNF as follows. Cultures of OPCs, SCs and DRGs were prepared as described above. Wells of the tissue culture dishes were treated with either 100 ng/ml of NGF or 100 ng/ml of BDNF for 24 hours prior to mRNA isolation. Cellular mRNA was extracted using the Absolutely RNA miniprep kit (Stratagene). Equal amounts of mRNA were subjected to RT-PCR. The primer sets used for the PCR reactions are as follows: […]

Sp35 [4] = assay: Sp35 expression in co-cultures, DRG neuronal and oligodendrocyte cultures treated with NGF
Method: Oligodendrocyte—DRG co-cultures were prepared as described previously. Various concentrations of NGF (0, 10, 50 and 100 ng/ml) were added to oligodendrocyte—DRG co-cultures, DRG neuronal cultures and oligodendrocyte cultures. In all cultures expression of Sp35 and phosphorylated TrkA was examined by […] or immuno-histochemical staining.

For `COC(=O)[C@@]1(O)C[C@H]2O[C@]1(C)n1c3ccccc3c3c4c(c5c6ccccc6n2c5c31)C(=O)NC4` [K525a], the “myelination, as measured by the presence of MBP” value (shortened to “myelination, as measured”) ([1]; concentration 1 nM) was “promoted myelination” and the “myelination, as measured” value ([1]; concentration 3 nM) was “promoted myelination”.

“NGF: Nerve Growth Factor, the TrkA ligand” was tested, and the myelination in co-culture ([2]; in the presence of NGF) was “inhibited”, the “Sp35 mRNA in DRGs” value (Sp35 [3]) was “induction” and the “Sp35 in DRG neurons by immunofluorescence” value (Sp35 [4]; 100 ng/ml of NGF, FIG. 10) was “Upregulation”. For the same molecule, the “Sp35 expression in oligodendrocyte/DRG cocultures” value (Sp35 [4]; NGF 0, 10, 50 and 100 ng/ml, FIG. 8) was “increased” and the “Sp35 expression in cultured oligodendrocytes” value (Sp35 [4]; NGF 0, 10, 50 and 100 ng/ml, FIG. 9) was “remained constant”.

B1: Sp35-Fc: extra-cellular portion of human Sp35 (residues 1-532) fused to the hinge and Fc region of human IgG1 (protein)
chain: TGCPPRCECSAQDRAVLCHRKRFVAVPEGIPTETRLLDLGKNRIKTLNQDEFASFPHLEELELNENIVSAVEPGAFNNLFNLRTLGLRSNRLKLIPLGVFTGLSNLTKLDISENKIVILLDYMFQDLYNLKSLEVGDNDLVYISHRAFSGLNSLEQLTLEKCNLTSIPTEALSHLHGLIVLRLRHLNINAIRDYSFKRLYRLKVLEISHWPYLDTMTPNCLYGLNLTSLSITHCNLTAVPYLAVRHLVYLRFLNLSYNPISTIEGSMLHELLRLQEIQLVGGQLAVVEPYAFRGLNYLRVLNVSGNQLTTLEESVFHSVGNLETLILDSNPLACDCRLLWVFRRRWRLNFNRQQPTCATPEFVQGKEFKDFPDVLLPNYFTCRRARIRDRKAQQVFVDEGHTVQFVCRADGDPPPAILWLSPRKHLVSAKSNGRLTVFPDGTLEVRYAQVQDNGTYLCIAANAGGNDSMPAHLHVRSYSPDWPHQPNKTFAFISNQPGE
modifications: left off: a dimerising Fc or GST
notes: extra-cellular portion of human Sp35 (residues 1-532) fused to the hinge and Fc region of human IgG1
For B1, the “MBP positive oligodendrocytes and myelin internodes” value ([2]; 100 ng/ml NGF, 14 days, compared to controls, FIG. 13) was “enhancement”, the “number of MBP+ oligodendrocytes” value ([2]; co-culture in the presence of NGF, treated 3 weeks, vs control-Fc, FIG. 5) was “increased” and the “number of MBP+ cells, dependence on concentration” value ([2]; increasing concentrations of Sp35-Fc, 3 weeks, NGF present, FIG. 5C) was “increased as the concentration of the Sp35 antagonist increased”. The “myelination, as measured” value ([1]; Sp35-Fc as comparator for K525a) was “promoted myelination”.
